Data taken from patent EP2987533B1, “7-substituted piperazin-1-yl fluoroquinolone compounds, their use in the treatment of cancer, pharmaceutical compositions and a method for preparation” (priority 2014, dated 2016).

Key:
Test in all cases: NCI one-dose SRB growth assay
Assay type in all cases: cell-based
A498 = settings: Homo sapiens; A498 (Renal Cancer), 10^-5 M, 48 h; read-out: % Growth Inhibition (GI %)
Outline: (§1)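 Single dose 10^-5M, 48 h exposure. SRB protein staining, absorbance read. Output: % growth vs untreated controls.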

A549/ATCC = settings: Homo sapiens; A549/ATCC (Non-Small Cell Lung Cancer), 10^-5 M, 48 h; read-out: % Growth Inhibition (GI %)
Outline: as §1

ACHN = settings: Homo sapiens; ACHN (Renal Cancer), 10^-5 M, 48 h; read-out: % Growth Inhibition (GI %)
Outline: as §1

BT-549 = settings: Homo sapiens; BT-549 (Breast Cancer), 10^-5 M, 48 h; read-out: % Growth Inhibition (GI %)
Outline: as §1

COLO 205 = settings: Homo sapiens; COLO 205 (Colon Cancer), 10^-5 M, 48 h; read-out: % Growth Inhibition (GI %)
Outline: as §1

HCT-116 = settings: Homo sapiens; HCT-116 (Colon Cancer), 10^-5 M, 48 h; read-out: % Growth Inhibition (GI %)
Outline: as §1

HCT-15 = settings: Homo sapiens; HCT-15 (Colon Cancer), 10^-5 M, 48 h; read-out: % Growth Inhibition (GI %)
Outline: as §1

HL-60(TB) = settings: Homo sapiens; HL-60(TB) (Leukemia), 10^-5 M, 48 h; read-out: % Growth Inhibition (GI %)
K-562 = settings: Homo sapiens, K562; K-562 (Leukemia), 10^-5 M, 48 h; read-out: % Growth Inhibition (GI %)
Outline: as §1

KM12 = settings: Homo sapiens; KM12 (Colon Cancer), 10^-5 M, 48 h; read-out: % Growth Inhibition (GI %)
Outline: as §1

LOX IMVI = settings: Homo sapiens; LOX IMVI (Melanoma), 10^-5 M, 48 h; read-out: % Growth Inhibition (GI %)
Outline: as §1

M14 = settings: Homo sapiens; M14 (Melanoma), 10^-5 M, 48 h; read-out: % Growth Inhibition (GI %)
Outline: as §1

MALME-3M = settings: Homo sapiens; MALME-3M (Melanoma), 10^-5 M, 48 h; read-out: % Growth Inhibition (GI %)
Outline: as §1

MDA-MB-468 = settings: Homo sapiens; MDA-MB-468 (Breast Cancer), 10^-5 M, 48 h; read-out: % Growth Inhibition (GI %)
Outline: as §1

NCI-H226 = settings: Homo sapiens; NCI-H226 (Non-Small Cell Lung Cancer), 10^-5 M, 48 h; read-out: % Growth Inhibition (GI %)
Outline: as §1

NCI-H460 = settings: Homo sapiens; NCI-H460 (Non-Small Cell Lung Cancer), 10^-5 M, 48 h; read-out: % Growth Inhibition (GI %)
NCI-H522 = settings: Homo sapiens; NCI-H522 (Non-Small Cell Lung Cancer), 10^-5 M, 48 h; read-out: % Growth Inhibition (GI %)
Outline: as §1

SF-295 = settings: Homo sapiens; SF-295 (CNS Cancer), 10^-5 M, 48 h; read-out: % Growth Inhibition (GI %)
Outline: as §1

SK-OV-3 = settings: Homo sapiens; SK-OV-3 (Ovarian Cancer), 10^-5 M, 48 h; read-out: % Growth Inhibition (GI %)
Outline: as §1

SNB-19 = settings: Homo sapiens; SNB-19 (CNS Cancer), 10^-5 M, 48 h; read-out: % Growth Inhibition (GI %)
Outline: as §1

SNB-75 = settings: Homo sapiens; SNB-75 (CNS Cancer), 10^-5 M, 48 h; read-out: % Growth Inhibition (GI %)
Outline: as §1

SR = settings: Homo sapiens; SR (Leukemia), 10^-5 M, 48 h; read-out: % Growth Inhibition (GI %)
Outline: as §1

SW-620 = settings: Homo sapiens; SW-620 (Colon Cancer), 10^-5 M, 48 h; read-out: % Growth Inhibition (GI %)
U251 = settings: Homo sapiens, U-251; U251 (CNS Cancer), 10^-5 M, 48 h; read-out: % Growth Inhibition (GI %)
Outline: as §1

UACC-257 = settings: Homo sapiens; UACC-257 (Melanoma), 10^-5 M, 48 h; read-out: % Growth Inhibition (GI %)
Outline: as §1

UACC-62 = settings: Homo sapiens; UACC-62 (Melanoma), 10^-5 M, 48 h; read-out: % Growth Inhibition (GI %)
Outline: as §1

Compound O=C(O)c1cn(C2CC2)c2cc(N3CCN(S(=O)(=O)c4ccc(Cl)c(Cl)c4)CC3)c(F)cc2c1=O [Compound 3b] has an inhibition at 10 µM (A498) of 86.2%, an inhibition at 10 µM (A549/ATCC) of 94% and an inhibition at 10 µM (ACHN) of 95%. The inhibition at 10 µM (BT-549) was greater than 100%, the inhibition at 10 µM (COLO 205) was greater than 100% and the inhibition at 10 µM (HCT-116) was 96%. For the same compound, the inhibition at 10 µM (HCT-15) was 93.8%, the inhibition at 10 µM (HL-60(TB)) was greater than 100% and the inhibition at 10 µM (K-562) was 83.1%. The inhibition at 10 µM (KM12) was 85.4%, the inhibition at 10 µM (LOX IMVI) was 98.8% and the inhibition at 10 µM (M14) was 81.5%. For the same compound, the inhibition at 10 µM (MALME-3M) was greater than 100%, the inhibition at 10 µM (MDA-MB-468) was greater than 100% and the inhibition at 10 µM (NCI-H226) was 58.6%. For the same compound, the inhibition at 10 µM (NCI-H460) was 94.2%, the inhibition at 10 µM (NCI-H522) was greater than 100% and the inhibition at 10 µM (SF-295) was greater than 100%. For the same compound, the inhibition at 10 µM (SK-OV-3) was 73.2%, the inhibition at 10 µM (SNB-19) was 75.3% and the inhibition at 10 µM (SNB-75) was 86.8%. It also gave an inhibition at 10 µM (SR) greater than 100%, an inhibition at 10 µM (SW-620) of 79.3% and an inhibition at 10 µM (U251) of 87.6%. The inhibition at 10 µM (UACC-257) was 91.1% and the inhibition at 10 µM (UACC-62) was 70.4%.
O=c1[nH]cc(F)c(=O)[nH]1 [Compound 5-FU, 5-fluorouracil, reference compound] gave an inhibition at 10 µM (A498) greater than 100%, an inhibition at 10 µM (A549/ATCC) of 34.2% and an inhibition at 10 µM (ACHN) of 39.3%. The inhibition at 10 µM (BT-549) was 37.8%, the inhibition at 10 µM (COLO 205) was 40.2% and the inhibition at 10 µM (HCT-116) was 17.8%. The inhibition at 10 µM (HCT-15) was 26.5%, the inhibition at 10 µM (HL-60(TB)) was 47.9% and the inhibition at 10 µM (K-562) was 42.3%. The inhibition at 10 µM (KM12) was 40.7%, the inhibition at 10 µM (LOX IMVI) was 30.4% and the inhibition at 10 µM (MALME-3M) was 58.2%. It also gave an inhibition at 10 µM (NCI-H226) of 69.5%, an inhibition at 10 µM (NCI-H460) of 13% and an inhibition at 10 µM (NCI-H522) of 58%. For the same compound, the inhibition at 10 µM (SF-295) was 69.1%, the inhibition at 10 µM (SK-OV-3) was 77.5% and the inhibition at 10 µM (SNB-19) was 65.9%. For the same compound, the inhibition at 10 µM (SNB-75) was 65.9%, the inhibition at 10 µM (SR) was 24.8% and the inhibition at 10 µM (SW-620) was 50.1%. The inhibition at 10 µM (U251) was 50.3%, the inhibition at 10 µM (UACC-257) was 19.5% and the inhibition at 10 µM (UACC-62) was 39.7%.
Compound CCn1cc(C(=O)O)c(=O)c2cc(F)c(N3CCN(S(=O)(=O)c4c(C)cc(C)cc4C)CC3)cc21 [Compound 6a] has an inhibition at 10 µM (A498) of 21.1%, an inhibition at 10 µM (A549/ATCC) of 22% and an inhibition at 10 µM (ACHN) of 24.2%. The inhibition at 10 µM (BT-549) was 26.3%, the inhibition at 10 µM (COLO 205) was less than 10% and the inhibition at 10 µM (HCT-116) was 20.9%. The inhibition at 10 µM (HCT-15) was 28.5%, the inhibition at 10 µM (HL-60(TB)) was 26.9% and the inhibition at 10 µM (K-562) was 20.1%. The inhibition at 10 µM (KM12) was 12.8%, the inhibition at 10 µM (LOX IMVI) was 38.7% and the inhibition at 10 µM (M14) was 24.4%. It also gave an inhibition at 10 µM (MALME-3M) of less than 10%, an inhibition at 10 µM (MDA-MB-468) of 19.7% and an inhibition at 10 µM (NCI-H226) of 23.1%. For the same compound, the inhibition at 10 µM (NCI-H460) was 17.2%, the inhibition at 10 µM (NCI-H522) was 13.5% and the inhibition at 10 µM (SF-295) was 51.6%. It also gave an inhibition at 10 µM (SK-OV-3) of less than 10%, an inhibition at 10 µM (SNB-19) of 10.1% and an inhibition at 10 µM (SNB-75) of 29.2%. It also gave an inhibition at 10 µM (SR) of 35.5%, an inhibition at 10 µM (SW-620) of less than 10% and an inhibition at 10 µM (U251) of 16.6%. The inhibition at 10 µM (UACC-257) was less than 10% and the inhibition at 10 µM (UACC-62) was 24.1%.
Work on Cc1cc(C)c(S(=O)(=O)N2CCN(c3cc4c(cc3F)c(=O)c(C(=O)O)cn4C3CC3)CC2)c(C)c1 [Compound 6b] yielded an inhibition at 10 µM (A498) of 37%, an inhibition at 10 µM (A549/ATCC) of 79.7% and an inhibition at 10 µM (ACHN) of 48.7%. It also gave an inhibition at 10 µM (BT-549) of 22.7%, an inhibition at 10 µM (COLO 205) of 42.4% and an inhibition at 10 µM (HCT-116) of 67.8%. The inhibition at 10 µM (HCT-15) was 44.9%, the inhibition at 10 µM (HL-60(TB)) was 91.3% and the inhibition at 10 µM (K-562) was 36.5%. For the same compound, the inhibition at 10 µM (KM12) was 39.3%, the inhibition at 10 µM (LOX IMVI) was 70.4% and the inhibition at 10 µM (M14) was 36.5%. The inhibition at 10 µM (MALME-3M) was 40.3%, the inhibition at 10 µM (MDA-MB-468) was 34.9% and the inhibition at 10 µM (NCI-H226) was 28.2%. It also gave an inhibition at 10 µM (NCI-H460) of 60.5%, an inhibition at 10 µM (NCI-H522) of 32.7% and an inhibition at 10 µM (SF-295) of 66.8%. The inhibition at 10 µM (SK-OV-3) was 18.4%, the inhibition at 10 µM (SNB-19) was 33.7% and the inhibition at 10 µM (SNB-75) was 63.4%. It also gave an inhibition at 10 µM (SR) of 60.9%, an inhibition at 10 µM (SW-620) of 20.2% and an inhibition at 10 µM (U251) of 80.3%. It also gave an inhibition at 10 µM (UACC-257) of 13.1% and an inhibition at 10 µM (UACC-62) of 23.4%.
